From patent US20150216779A1, “COMPOSITIONS FOR TARGETED ANTI-AGING THERAPY” (THE TEXAS A&M UNIVERSITY SYSTEM, priority 2012, published 2015)
Each block holds one compound with its values, some of them ahead of it.

Experiments:
[1] = Lutein photo-stability in delivery system at 21° C. under light 12 h daily, HPLC-PDA-MS/MS; assay type: physicochemical; conditions: UV and visible light 12 h daily at 21° C. over 8 weeks; dispersed in heat-stabilized lactoferrin matrix
Method: A. Encapsulated-1 (Lutein). Primary Emulsion. […] This mixture was coarsely homogenized for 3 min using a hand blender. Secondary Emulsion.
(§1) The primary and secondary emulsions were blended at 1:1 ratio. The final emulsion system contained 0.5% Menhaden oil/Smart Blend Omega oil, 0.1% heat-stabilized lactoferrin, 0.1% lutein, and 0.1% high-methoxyl pectin (w/w). The zinc ion concentration after dilution became 2.4 mg/100 ml. This delivery system for lutein was homogenized (72° C., 22.5 MPa), followed by pasteurization (72° C., 120 s).
B. Encapsulated-2 (Lutein). Primary Emulsion. […] This mixture was coarsely homogenized for 3 min using a hand blender. Secondary Emulsion.
as §1, with “lactoferrin, 0.2% branched-chain amino acids,” for “lactoferrin,”
C. Unencapsulated (Lutein). […] This mixture was homogenized (72° C., 22.5 MPa), followed by pasteurization (72° C., 120 s).
The samples (500 ml each) were aseptically dispensed into clean, clear 600-ml bottles made from polyethylene terephthalate (PET). […]

[2] = CoQ10 storage stability in delivery system at 30° C., HPLC; assay type: physicochemical; conditions: 8 weeks at 30° C.; dispersed in matrix of heat-stabilized lactoferrin alone and in combination with branched-chain amino acids
Method: A delivery system containing the anti-aging agent CoQ10 is prepared as follows: A. Encapsulated-1 (CoQ10). Primary Emulsion. […] This mixture was coarsely homogenized for 3 min using a hand blender. Secondary Emulsion.
The primary and secondary emulsions were blended at 1:1 ratio. The final emulsion system contained 0.5% Menhaden oil/Smart Blend Omega oil, 0.1% heat-stabilized lactoferrin, 0.1% CoQ10 and 0.1% high-methoxyl pectin (w/w). The zinc ion concentration after dilution became 2.4 mg/100 ml. This delivery system for CoQ10 was homogenized (72° C., 22.5 MPa), followed by pasteurization (72° C., 120 s). B. Encapsulated-2 (CoQ10). Primary Emulsion. […] This mixture was coarsely homogenized for 3 min using a hand blender. Secondary Emulsion. […] The primary and secondary emulsions were blended at 1:1 ratio. The final emulsion system contained 0.5% Menhaden oil/Smart Blend Omega oil, 0.1% heat-stabilized lactoferrin, 0.2% branched-chain amino acids, 0.1% CoQ10, and 0.1% high-methoxyl pectin (w/w). The zinc ion concentration after dilution became 2.4 mg/100 ml. This delivery system for CoQ10 was homogenized (72° C., 22.5 MPa), followed by pasteurization (72° C., 120 s). C. Unencapsulated (CoQ10). […] This mixture was homogenized (72° C., 22.5 MPa), followed by pasteurization (72° C., 120 s). […]

[3] = O/W emulsion, menhaden oil/Smart Blend Omega oil 1:1 (0.5% w/w), entrapped within β-lactoglobulin microcarriers; 28 days of storage at 30° C.

light-sensitive degradation of xanthophyll carotenoid pigments (lutein) [1]: about 70%
Compound: CC1=C[C@H](O)CC(C)(C)[C@H]1/C=C/C(C)=C/C=C/C(C)=C/C=C/C=C(C)/C=C/C=C(C)/C=C/C1=C(C)C[C@@H](O)CC1(C)C [lutein]

degradation of CoQ10 during storage [2]: about 30%
Compound: COC1=C(OC)C(=O)C(C/C=C(\C)CC/C=C(\C)CC/C=C(\C)CC/C=C(\C)CC/C=C(\C)CC/C=C(\C)CC/C=C(\C)CC/C=C(\C)CC/C=C(\C)CCC=C(C)C)=C(C)C1=O [CoQ10, coenzyme Q10]

percentage of retained ω-3 fatty acid [3]: 79.5%
Compound: docohexaenoic acid [DHA]
